Source: patent publication US12691086B2, “Methods of treating systemic sclerosis and idiopathic pulmonary fibrosis” (HORIZON THERAPEUTICS IRELAND DAC, priority 2022, dated 2026)
Entries after “also recorded” stand apart in the source; their conditions may differ. Read-outs that look alike come from different tables or passages of the source.

What was measured:
[1] = molecular target: T1, organic anion transporter 1 (OAT1) (Homo sapiens, UniProt Q4U2R8); assay: In vitro inhibition of organic anion transporter 1; assay type: in vitro ADME
T1 sequence (Q4U2R8 1-563): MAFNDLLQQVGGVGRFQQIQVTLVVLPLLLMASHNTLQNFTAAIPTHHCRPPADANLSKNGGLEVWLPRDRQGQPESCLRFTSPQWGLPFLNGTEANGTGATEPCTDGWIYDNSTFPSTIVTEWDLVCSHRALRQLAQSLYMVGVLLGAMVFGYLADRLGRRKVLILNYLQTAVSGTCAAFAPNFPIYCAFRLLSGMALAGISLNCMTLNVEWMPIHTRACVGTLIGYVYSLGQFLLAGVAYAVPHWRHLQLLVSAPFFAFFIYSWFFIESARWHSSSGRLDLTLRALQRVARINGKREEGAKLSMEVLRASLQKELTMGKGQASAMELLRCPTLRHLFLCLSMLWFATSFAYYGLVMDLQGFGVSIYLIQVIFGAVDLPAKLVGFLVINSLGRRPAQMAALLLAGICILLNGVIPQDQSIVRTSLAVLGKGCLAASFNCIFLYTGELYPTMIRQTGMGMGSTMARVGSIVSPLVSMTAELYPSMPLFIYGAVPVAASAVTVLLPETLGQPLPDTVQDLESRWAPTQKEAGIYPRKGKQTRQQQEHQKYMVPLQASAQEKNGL

[2] = test system: patients with early dcSSc; assay: 8-week double-blind, placebo-controlled study with 16-week open-label extension in dcSSc; assay type: in vivo, human
Description: The primary end point was safety during the double-blind phase of the trial. Exploratory end points included the identification of an LPA-induced gene signature in patients' skin.
Seventeen of 32 patients were randomly assigned to receive placebo and 15 to receive Compound I. Thirty patients participated in the open-label extension study. […] At week 8, the reduction in MRSS was numerically greater in the Compound I group than in the placebo group (mean±SD change −3.57±4.18 versus −2.76±4.85; treatment effect −1.2 [95% confidence interval −4.37, 2.02]).

tight skin (Tsk-1) mice = assay: Tight skin (Tsk-1) mice model of skin fibrosis; assay type: in vivo, mouse; conditions: 30 mg/kg/day
Description: Two models of skin fibrosis were used to evaluate the effect of Compound I in comparison with imatinib mesylate, used as a reference.

[3] = test system: patients with early dcSSc; conditions: Allanore et al. 2018, cited from earlier work
thrombosis = assay: Acute models of coagulation and arterial thrombosis (two models in rats); assay type: in vivo
Description: (§1) All these pathological events can be observed in SSc patients at different levels and further support the use of Compound I in these patients.

renal failure = assay: Models of hypertension-induced or nephrotoxicity-induced renal failure; conditions: in vivo
Description: as §1

[4] = molecular target: T2, organic anion transporter 3 (OAT3) (Homo sapiens, UniProt Q8TCC7); assay: In vitro inhibition of organic anion transporter 3; assay type: in vitro ADME
T2 sequence (Q8TCC7 1-542): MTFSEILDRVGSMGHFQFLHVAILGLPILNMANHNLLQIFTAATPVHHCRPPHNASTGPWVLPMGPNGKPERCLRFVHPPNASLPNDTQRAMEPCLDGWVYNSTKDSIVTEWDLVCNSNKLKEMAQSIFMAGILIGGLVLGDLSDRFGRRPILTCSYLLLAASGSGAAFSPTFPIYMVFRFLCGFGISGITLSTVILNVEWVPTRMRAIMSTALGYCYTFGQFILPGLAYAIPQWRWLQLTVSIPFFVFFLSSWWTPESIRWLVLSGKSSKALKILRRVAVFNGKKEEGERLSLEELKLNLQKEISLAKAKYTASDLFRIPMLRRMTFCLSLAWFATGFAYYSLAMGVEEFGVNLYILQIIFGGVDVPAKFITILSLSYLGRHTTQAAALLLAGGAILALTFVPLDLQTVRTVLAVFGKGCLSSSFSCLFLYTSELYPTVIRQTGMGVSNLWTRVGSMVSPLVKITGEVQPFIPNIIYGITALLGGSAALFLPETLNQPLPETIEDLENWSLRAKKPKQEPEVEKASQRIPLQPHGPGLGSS

[5] = molecular target: lysophosphatidic acid receptor 1 (LPAR1) (Homo sapiens, UniProt Q92633); assay: LPAR1 antagonism
skin fibrosis = conditions: mouse, in vivo; cited from earlier work
[6] = test system: cardiac hypertrophy, fibrosis and heart failure; assay: Models of hypertension or diabetes-related cardiac hypertrophy, fibrosis and heart failure; conditions: in vivo
Description: as §1

[7] = 24-weeks of continuous treatment
[8] = Subjects switched from placebo to Compound I, 16-week open label extension

Sequence of lysophosphatidic acid receptor 1 (LPAR1) (Q92633 whole entry): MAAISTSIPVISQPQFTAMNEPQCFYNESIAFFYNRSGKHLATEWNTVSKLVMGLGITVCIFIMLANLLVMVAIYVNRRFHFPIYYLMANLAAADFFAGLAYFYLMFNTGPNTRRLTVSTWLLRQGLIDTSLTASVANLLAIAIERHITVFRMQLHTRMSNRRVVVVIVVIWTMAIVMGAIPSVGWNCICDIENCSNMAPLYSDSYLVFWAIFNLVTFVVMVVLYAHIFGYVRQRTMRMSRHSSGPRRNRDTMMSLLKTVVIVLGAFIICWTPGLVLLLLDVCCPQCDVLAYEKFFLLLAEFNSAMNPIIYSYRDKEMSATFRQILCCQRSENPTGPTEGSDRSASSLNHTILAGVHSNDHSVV

For `COc1ccc(C(=O)NC2(C(=O)O)Cc3ccccc3C2)cc1OCCc1cccc(C)c1` [Compound I, 2-(4-methoxy-3-(3-methylphenethoxy)benzamido)-2,3-dihydro-1H-indene-2-carboxylic acid], the “inhibition of OAT1” value [1] was “inhibitor”, the “Median Decrease in mRSS” value [2, 7] was −7.5 and the “Responder Rate” value [2, 7] was 78.6%. For the same compound, the “Median Decrease in mRSS” value [2, 8] was −7.0, the “Responder Rate” value [2, 8] was 69.2% and the “most frequent adverse events” value ([2]; blinded phase) was “headache, diarrhea, nausea, and falling”. The “MRSS during the study” value ([2]; in vivo) was “improved during the study although the difference was not significant”, the “disease biomarkers (COMP and TSP1)” value ([2]; initial Compound I group, treatment up to 24 weeks) was “numerical improvement versus baseline” and the “LPA-related genes, biomarker analysis of skin biopsies” value ([2]; open label extension) was “reductions in LPA-related genes”. The safety profile ([2]; open-label extension) was “acceptable”, the tolerability ([2]; patients with dcSSc) was “well tolerated” and the “reduction of LPA-related genes in skin samples versus placebo group” value ([2]; week 8) was “greater reduction”. The “treatment effect on MRSS versus placebo” value ([2]; week 8) was −1.2, the “change in MRSS, mean±SD” value ([2]; week 8, double-blind phase) was −3.57±4.18 and the “HAQ-DI (functional disability)” value ([2]; week 24) was “clinically significant improvement”. The “progression of skin fibrosis” value (tight skin (Tsk-1) mice) was “inhibit the progression of skin fibrosis at a similar level than imatinib”, the “most frequent treatment-emergent adverse events (TEAEs)” value ([3]; 8-week double-blind period) was “headache, diarrhea, nausea and fall” and the tolerability ([3]; about 300 mg BID up to 24 weeks) was “well tolerated”. The “clinical outcome measures (mRSS, HAQ-DI, SHAQ components, disease severity VAS, pruritus VAS)” value ([3]; about 300 mg BID) was “improved outcome measures; also recorded: numerical improvement”, the target engagement [3] was “demonstrated target engagement” and the antithrombotic activity (thrombosis) was “moderate but significant antithrombotic activity; also recorded: demonstrated antithrombotic activity”. For the same compound, the kidney function (renal failure) was “improved kidney function”, the “inhibition of OAT3” value [4] was “inhibitor” and the LPAR1 antagonist activity [5] was “potent and selective antagonist”. For the same compound, the collagen content (skin fibrosis) was “reduced”, the dermal thickening (skin fibrosis) was “reversed” and the myofibroblast differentiation (skin fibrosis) was “significantly inhibited”. For the same compound, the arterial stiffness [6] was “positive effect”, the blood pressure [6] was “mostly unchanged” and the “cardiac function and structure” value [6] was “beneficial effect”. For the same compound, the “cardiac systolic and diastolic function” value [6] was “improves”.
